From patent publication US6440938B1, “Prevention and/or treatment of allergic conditions” (The Victoria University of Manchester, priority 1997, dated 2002)

Columns and labels:
[1] = test system: MDCK cell monolayers; assay: Mannitol permeability of MDCK cell monolayers exposed to HDM proteinase fractions; assay type: cell-based, canine; conditions: for inhibition of the action of the serine proteinase fraction on mannitol permeability: AEBSF 100μM, fraction 127 azocoll units ml^−1, 18 h (FIG. 3b); for effect of inhibitor alone on intrinsic epithelial permeability: inhibitor per se, no proteinase fraction (FIG. 3)
Description: (§1) Measurements of mannitol clearance were performed on confluent cell monolayers that had been propagated on 0.4μm pore diameter Costar Transwell™ inserts coated with an ungelled ultra-thin undercoat of Madrigel. Coating was achieved by addition of 250μl aliquots of Matrigel (diluted 1:500 v/v in EMEM) to the interior of the insert followed by ambient incubation for 60 min under aseptic conditions. The solution was then aspirated and the inserts gently washed with medium before the addition of a confluent density of cell suspension.
(§2) Cells (2-5×10^5 per cm^2 growth area) were plated onto Matrigel-coated inserts. We use the term ‘insert’ as meaning the filter unit containing the cells and the term ‘well’ as referring to the cavities of the tissue culture plate. To monitor growth and integrity, inserts were taken at random, washed gently in PBS and stained under subdued illumination with acridine orange and ethidium bromide (1mg ml^−1 each in PBS). Inserts were examined by fluorescence microscopy and were used only when confluence with high viability was attained.
(§3) At confluence, the medium was aspirated from the wells and replaced with serum- and bicarbonate-free EMEM buffered with 20 mM HEPES and containing 2 mM L-glutamine. The medium from the inserts was then gently removed and replaced with 300μl of serum-free EMEM containing [^14C]-mannitol (1μCi ml^−1 and 1 mg ml^−1 unlabelled mannitol in HEPES-buffered medium). The Transwell™ plates were then equilibrated for 30 min at 37° C. on a Luckham R100 orbital shaker. Triplicate 100μl aliquots of the unused labelled mannitol solution were sampled and their radioactivity content determined by liquid scintillation spectrometry (Beckman LS6000IC) following addition of 5 ml Opti-Fluor.
(§4) After the equilibration period, the inserts were placed in fresh wells containing 1 ml of serum-free HEPES buffered EMEM and incubated at 37° C. with continuous gentle shaking. The medium from the original wells was retained and its radioactivity content determined after the addition of 10 ml Opti-Fluor. […] At timed intervals, 20μl aliquots of the basolateral bathing fluid were removed and the amount of ^14C mannitol quantified as described above for the calculation of clearance volume.
Clearance estimates were made over 3-5h and were calculated according to the relationship: [formula]
(§5) Under conditions where diffusion is the sole means of transepithelial movement of the solute, dVprobe/dt approximates closely to the permeability-surface area product thus allowing estimation of the permeability of mannitol in the composite system of cells, filter, unstirred layers and protein coating (Pt). Epithelial permeability can be calculated from the measured variable by considering the Matrigel-coated filter and unstirred layers as a system of series permeabilities. Thus: [formula]
Unstirred layer thicknesses are independent of membrane permeability under ideal conditions thus P3 in equations (3) and (4) are identical. Subtracting equations (2) and (3) thus permits the calculation of the permeability of the epithelial monolayer (5). [formula]
Analysis of variance was performed after log transformation of the permeability data and probability values for the different treatments assigned using the least significant difference test. Data are presented as the geometric mean values with indicated standard errors of n experimental observations. Probability levels of P<0.05 were considered statistically significant.

[2] = test system: intercellular junctions of MDCK cells (ZO-1, desmoplakin); assay: Immunocytochemical visualization of intercellular junctions (ZO-1, desmoplakin); assay type: cell-based, canine
Description: To study the effects of proteinases and inhibitors on intercellular junctions, MDCK cells were cultured on coverslips and treated with the appropriate proteinase and/or inhibitor for the desired time period. The cells were fixed in ice-cold methanol before binding of rat anti-ZO-1 (mAb R40.76) (Stevenson et al., 1986; Anderson et al., 1988) and mouse anti-desmoplakin (mAb 11-5F) (Parrish et al., 1987). Indirect fluorescent antibody staining was performed using FITC- and TRITC-conjugated second antibodies. Microscopy was carried out using a Zeiss Axiovert microscope with x40 magnification oil immersion Fluar objective. Specimens were illuminated using excitation and emission filter sets for FITC and TRITC. Cells were photographed as described above.

[3] = test system: Calu-3 cell monolayers; assay: Mannitol permeability of Calu-3 cell monolayers exposed to HDM proteinase fractions; assay type: cell-based, human; conditions: for inhibition of the permeability change caused by the serine proteinase fraction: E-64 10μM, fraction 94 azocoll units ml^−1, 18 h (FIG. 4b); for mannitol permeability: P<0.05, n=5
Description: as §1, §2, §3, §4
Paracellular permeability of mannitol was determined in accordance with the procedure described in our copending U.K. Patent Application No. 9715058 and was calculated from measurements of clearance volume at defined time points. Clearance estimates were made over 3-5h and were calculated according to the relationship: [formula]
as §5
Unstirred layer thicknesses are independent of membrane permeability under ideal conditions thus P3 in equations (3) and (4) are identical. Subtracting equations (2) and (3) thus permits the calculation of the permeability of the epithelial monolayer (5). [formula] […]

[4] = target: T1, Der p 1 (Dermatophagoides pteronyssinus, UniProt P08176); conditions: literature (Herbert et al. 1995; Hewitt et al. 1995, 1997); cited from earlier work
T1 sequence (P08176 99-320): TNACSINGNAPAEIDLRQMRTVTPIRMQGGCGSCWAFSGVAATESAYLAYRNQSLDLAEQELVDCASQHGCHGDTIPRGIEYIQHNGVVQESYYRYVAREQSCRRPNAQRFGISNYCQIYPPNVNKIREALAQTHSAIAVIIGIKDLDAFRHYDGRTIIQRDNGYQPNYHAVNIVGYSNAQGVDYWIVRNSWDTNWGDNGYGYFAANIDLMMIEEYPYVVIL

[5] = test system: Calu-3 cells; assay: DNA fragmentation (agarose gel), Calu-3 cells; assay type: cell-based, human; conditions: BB-250 5μM, E-64 10μM; for inhibition of cysteine proteinase fraction-induced DNA fragmentation: fraction 80 azocoll units ml^−1 (FIG. 7b)
Description: Cells were plated on 60×15 mm petri dishes and grown for 2-4 days in serum-containing EMEM under tissue culture conditions in a 5% CO2 atmosphere. Cells were then exposed to treatments in serum-free EMEM containing 20 mM HEPES whilst under aerobic incubation at 37° C. At defined time points, cells were harvested with a scraper and pooled with detached cells in the supernatant. Cells were centrifuged at 550×g for 5 min and their DNA extracted (Nucleon II, Scotlab, Coatbridge, Stratchclyde). The extracted DNA was resuspended in 100μl TE buffer (10 mM Tris-HCL and 1 mM Na2EDTA) overnight at room temperature and its purity determined spectrophotometrically. Equal amounts of DNA were applied in 4:1 ratio with sample buffer (0.25% bromophenol blue and 40% w/v sucrose in water) to each lane of 2% (w/v) agarose gels and electrophoresis performed at 50V for 2-3h in TAE buffer (0.04M Tris-acetate and 0.001M EDTA). Bands of DNA in the gels (which had ethidium bromide incorporated into them) were visualized by ultra-violet light.

[6] = target: T2, HDM cysteine proteinase fraction (50% precipitate) (Dermatophagoides pteronyssinus, UniProt P08176); assay: Enzyme degradation of chromogenic substrates by the 50% ammonium sulphate precipitate; assay type: biochemical, D. pteronyssinus; conditions: data not shown
T2 construct: tissue Commonwealth Serum Laboratory, Parkville, Australia; host or cells: spent culture medium of D. pteronyssinus, 50% saturated ammonium sulphate pellet
T2 sequence (P08176 99-320): T1 sequence (P08176 99-320)
Text: HDM proteinase allergens have not yet been prepared in catalytically competent form by recombinant cellular expression of the mature enzyme protein. For convenience, and to enable future large scale screening of potential inhibitors in the absence of catalytically active recombinant proteins, we sought to separate the cysteine and serine proteinase activity by simple biochemical fractionation of spent medium in which HDM had been grown. During culture the HDM release allergens into the medium resulting in the accumulation of proteins suitable for purification. Spent medium from cultures of D. pteronyssinus (Commonwealth Serum Laboratory, Parkville, Australia) was dissolved in 5 volumes of phosphate buffered saline and then centrifuged at 48,400×g and 4° C. for 20 min. Ammonium sulphate was added gradually to the stirred supernatant at 4° C. to achieve a 50% saturated solution. After centrifugation (48,400×g, 20 min, 4° C.) the pellet, found by enzymatic assay to be enriched in cysteine proteinase activity, was redissolved in a minimum volume of distilled water. […] Protein content of the extracts was measured using the […] technique with serum albumin as standard (Smith et al, 1985). Proteinase activity was measured using the Azocoll degradation assay as described elsewhere (Herbert et al., 1995; Chavira et al., 1984). […]

[7] = test system: ICE/ced-3 caspase family; conditions: literature; cited from earlier work

Question: For `Cl.NCCc1ccc(S(=O)(=O)F)cc1` [AEBSF, 4-(2-aminoethyl)-benzenesulphonyl fluoride hydrochloride], which “inhibition of the action of the serine proteinase fraction on mannitol permeability” value [1] is on record?
Answer: Its value is “inhibited”.

Question: What about the “effect of inhibitor alone on intrinsic epithelial permeability” value (“effect of inhibitor alone” for short) [1] of the same molecule?
Answer: The value was “Neither inhibitor per se exerted any observable effect”.

Question: What about the “inhibition of serine proteinase fraction-dependent changes in ZO-1/desmoplakin staining” value ([2]; AEBSF 100μM, fraction 94 azocoll units ml^−1) of the same molecule?
Answer: The value was “inhibited”.

Question: And the “inhibition of the action of the cysteine proteinase fraction on mannitol permeability” value ([3]; Calu-3, AEBSF 100μM, fraction 80 azocoll units ml^−1, 18 h (FIG. 4a))?
Answer: Its value is “failed to inhibit”.

Question: And the “inhibition of the permeability change caused by the serine proteinase fraction” value ([3]; Calu-3)?
Answer: Its value is “ablated”.

Question: And the mannitol permeability ([3]; Calu-3 treated with serine proteinase fraction plus AEBSF)?
Answer: The mannitol permeability was 10.20±0.01 ×10−6 cm s^−1.

Question: For `N=C(N)c1ccc(CS(=O)(=O)F)cc1` [APMSF], which “inhibition of Der p 1 activity / effects” value [4] is on record?
Answer: The value was “reported to be inhibited”.

Question: Which “inhibition of cysteine proteinase fraction-induced DNA fragmentation” value [5] does the source give for `CNC(=O)[C@H](Cc1ccccc1)NC(=O)[C@H](CC(C)C)[C@H](CS(=O)(=O)c1cccs1)C(=O)NO` [BB-250, [4-(N-hydroxyamino)-2R-isobutyl-3S-(thiophen-2-yl-sulphonylmethyl)succinyl]-L-phenylalanine-N-methylamide] here?
Answer: The value was “attenuated”.

Question: What about the “inhibition of serine proteinase fraction-induced DNA fragmentation” value ([5]; fraction 94 azocoll units ml^−1 (FIG. 7b)) of the same molecule?
Answer: Its value is “attenuated”.

Question: Which “inhibition of Der p 1 activity / effects” value [4] does the source give for `CC(C)C[C@H](NC(=O)[C@H]1O[C@@H]1C(=O)O)C(=O)NCCCCN=C(N)N` (relative stereo) [E-64, L-trans-epoxysuccinyl-leucylamido-(4-guanidino)-butane] here?
Answer: The value was “sensitive to inhibition”.

Question: What about the “inhibition of cysteine proteinase fraction-induced DNA fragmentation” value [5] of the same molecule?
Answer: The value was “inhibited”.

Question: What about the “inhibition of the effect of the cysteine proteinase fraction on mannitol permeability” value ([1]; E-64 10μM, fraction 80 azocoll units ml^−1, 18 h (FIG. 3a)) of the same molecule?
Answer: The value was “attenuated”.

Question: And the “effect of inhibitor alone” value [1]?
Answer: Its value is “no observable effect”.

Question: What about the “catalytic activity of the 50% precipitate” value [6] of the same molecule?
Answer: The value was “inhibitable”.

Question: And the “inhibition of cysteine proteinase fraction-dependent changes in ZO-1/desmoplakin staining” value ([2]; E-64 10μM, fraction 80 azocoll units ml^−1)?
Answer: The value was “inhibited”.

Question: And the “inhibition of the permeability change caused by the serine proteinase fraction” value ([3]; Calu-3)?
Answer: Its value is “did not inhibit”.

Question: What about the mannitol permeability ([3]; Calu-3 treated with cysteine proteinase fraction plus E-64) of the same molecule?
Answer: Its mannitol permeability is 4.84±0.32 ×10^−6 cm s^−1.

Question: What about the “sensitivity of ICE/ced-3 caspases to the inhibitor” value [7] of the same molecule?
Answer: Its value is “insensitive”.

B1: SBTI: serine proteinase inhibitor; abbreviation not expanded in the patent (protein, UniProt P01070 25-205, looked up)
Trypsin inhibitor A: DFVLDNEGNPLENGGTYYILSDITAFGGIRAAPTGNERCPLTVVQSRNELDKGIGTIISSPYRIRFIAEGHPLSLKFDSFAVIMLCVGIPTEWSVVEDLPEGPAVKIGENKDAMDGWFRLERVSDDEFNNYKLVFCPQQAEDDKCGDIGISIDHDDGTRRLVVSKNKPLVVQFQKLDKESL
Question: Which “inhibition of the action of the serine proteinase fraction on mannitol permeability” value [1] does the source give for B1 here?
Answer: Its value is “less effectively”.

Question: What about the “effect of inhibitor alone” value [1] of the same molecule?
Answer: Its value is “Neither inhibitor per se exerted any observable effect”.
